Assay results published in article PMC12036814 (Angewandte Chemie (International Ed. in English), 2025).
Like-named read-outs stand apart in the source and are kept apart here.

Assays:
Experiment in all cases: Thermal protein profiling (TPP) in intact HEK293 cells
Format in all cases: cell-based
Conditions in all cases: 1 h
ADAL = molecular target: T1, ADAL (Homo sapiens, UniProt Q6DHV7)
T1 construct: endogenous in cells; host or cells: HEK293
T1 sequence (Q6DHV7 1-355): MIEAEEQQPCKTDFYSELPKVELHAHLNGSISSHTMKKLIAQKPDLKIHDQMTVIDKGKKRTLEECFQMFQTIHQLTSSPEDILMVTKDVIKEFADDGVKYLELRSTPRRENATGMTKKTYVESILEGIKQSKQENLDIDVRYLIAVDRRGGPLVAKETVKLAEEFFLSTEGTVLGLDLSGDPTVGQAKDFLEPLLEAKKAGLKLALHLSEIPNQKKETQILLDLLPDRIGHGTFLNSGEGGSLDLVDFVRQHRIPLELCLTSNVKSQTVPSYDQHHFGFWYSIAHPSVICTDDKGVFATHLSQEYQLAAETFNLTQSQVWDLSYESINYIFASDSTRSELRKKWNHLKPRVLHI
Experimental: (§1) incubated in a thermoshaker (600 rpm, 16 h, 37 °C). The digest was stopped by adding 10 μL formic
(§2) acid (FA) and vortexing followed by centrifugation (12,000 ×g, 3 min, room temperature). 50 mg
(§3) SepPak C18 columns (Waters, Milford, USA, Cat# WAT054960) were equilibrated by gravity flow two
(§4) times with 1 mL acetonitrile and three times with 1 mL aqueous 0.1% trifluoroacetic acid (TFA) solution.
(§5) Subsequently, the samples were loaded by gravity flow, washed three times with 1 mL aqueous 0.1%
(§6) TFA solution and once with 0.5 mL aqueous 0.5% formic acid (F A) solution. Elution of peptides into
(§7) new 2.0 mL Protein LoBind Eppendorf tubes was performed by two times addition of 250 μL elution
(§8) buffer (80% acetonitrile, 0.5% FA) by gravity flow followed by 250 μL elution buffer by vacuum flow
(§9) until all liquid was eluted from the column. The eluates were lyophilized. Before MS measurement the
(§10) (brief centrifugation after each step).
(§11) Thermal protein profiling (TPP)
(§12) The experiment was performed similarly to TPP-TR experiments described by Franken et al. with minor
(§13) modifications.5 HEK293 cells were grown in 8 T175 flasks to approx. 80-90% confluency. Per replicate
(§14) volume of 0.1 N HCl as vehicle control. Per condition two replicates were used, leading to a total of 8
(§15) T175 flasks. The cells were washed with PBS, detached with accutase, the two flask per replicate
(§16) condition combined and the cells pelletized (500 ×g, 3 min, r.t.). The medium was removed and each
(§17) pellet (Cipro #1, Cipro #2, Ctrl. #1, Ctrl #2) washed twice with cold PBS. Each pellet was resuspended
(§18) depending on the sample. The cell suspension of each sample was distributed into 10 PCR tubes
(§19) (100 µL per tube), resulting in 10 stripes á 4 tubes (2×2 conditions, 10 temperature points). The PCR
(§20) tubes were subjected to the temperature gradient using a PCR cycler.
(§21) limitations, two separate programs had to be run to cover the desired temperature range (see
(§22) Table S4). The PCR tubes were heat-treated according to the two programs for 3 min and directly snap
(§23) frozen in liquid nitrogen.
(§24) manufacturer instructions.

ULK3 = molecular target: T2, ULK3 (Homo sapiens, UniProt Q6PHR2)
T2 construct: endogenous in cells; host or cells: HEK293
T2 sequence (Q6PHR2 1-472): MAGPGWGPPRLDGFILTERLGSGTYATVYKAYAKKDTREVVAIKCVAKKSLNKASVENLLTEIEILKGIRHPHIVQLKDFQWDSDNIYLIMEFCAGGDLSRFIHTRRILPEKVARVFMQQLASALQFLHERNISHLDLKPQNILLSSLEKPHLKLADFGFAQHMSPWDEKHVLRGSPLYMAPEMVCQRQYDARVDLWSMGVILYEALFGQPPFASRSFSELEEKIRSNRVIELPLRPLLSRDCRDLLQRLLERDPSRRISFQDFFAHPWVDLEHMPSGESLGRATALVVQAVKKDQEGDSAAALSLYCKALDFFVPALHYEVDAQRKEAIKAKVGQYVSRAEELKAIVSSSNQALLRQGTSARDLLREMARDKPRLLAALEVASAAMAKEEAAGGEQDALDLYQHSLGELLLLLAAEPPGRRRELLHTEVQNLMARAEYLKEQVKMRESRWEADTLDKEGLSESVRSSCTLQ
Experimental: as §1, §2, §3, §4, §5, §6, §7, §8, §9, §10, §11, §12, §13, §14, §15, §16, §17, §18, §19, §20, §21, §22, §23, §24

SMG7 = molecular target: T3, SMG7 (Homo sapiens, UniProt Q92540)
T3 construct: endogenous in cells; host or cells: HEK293
T3 sequence (Q92540 1-1137): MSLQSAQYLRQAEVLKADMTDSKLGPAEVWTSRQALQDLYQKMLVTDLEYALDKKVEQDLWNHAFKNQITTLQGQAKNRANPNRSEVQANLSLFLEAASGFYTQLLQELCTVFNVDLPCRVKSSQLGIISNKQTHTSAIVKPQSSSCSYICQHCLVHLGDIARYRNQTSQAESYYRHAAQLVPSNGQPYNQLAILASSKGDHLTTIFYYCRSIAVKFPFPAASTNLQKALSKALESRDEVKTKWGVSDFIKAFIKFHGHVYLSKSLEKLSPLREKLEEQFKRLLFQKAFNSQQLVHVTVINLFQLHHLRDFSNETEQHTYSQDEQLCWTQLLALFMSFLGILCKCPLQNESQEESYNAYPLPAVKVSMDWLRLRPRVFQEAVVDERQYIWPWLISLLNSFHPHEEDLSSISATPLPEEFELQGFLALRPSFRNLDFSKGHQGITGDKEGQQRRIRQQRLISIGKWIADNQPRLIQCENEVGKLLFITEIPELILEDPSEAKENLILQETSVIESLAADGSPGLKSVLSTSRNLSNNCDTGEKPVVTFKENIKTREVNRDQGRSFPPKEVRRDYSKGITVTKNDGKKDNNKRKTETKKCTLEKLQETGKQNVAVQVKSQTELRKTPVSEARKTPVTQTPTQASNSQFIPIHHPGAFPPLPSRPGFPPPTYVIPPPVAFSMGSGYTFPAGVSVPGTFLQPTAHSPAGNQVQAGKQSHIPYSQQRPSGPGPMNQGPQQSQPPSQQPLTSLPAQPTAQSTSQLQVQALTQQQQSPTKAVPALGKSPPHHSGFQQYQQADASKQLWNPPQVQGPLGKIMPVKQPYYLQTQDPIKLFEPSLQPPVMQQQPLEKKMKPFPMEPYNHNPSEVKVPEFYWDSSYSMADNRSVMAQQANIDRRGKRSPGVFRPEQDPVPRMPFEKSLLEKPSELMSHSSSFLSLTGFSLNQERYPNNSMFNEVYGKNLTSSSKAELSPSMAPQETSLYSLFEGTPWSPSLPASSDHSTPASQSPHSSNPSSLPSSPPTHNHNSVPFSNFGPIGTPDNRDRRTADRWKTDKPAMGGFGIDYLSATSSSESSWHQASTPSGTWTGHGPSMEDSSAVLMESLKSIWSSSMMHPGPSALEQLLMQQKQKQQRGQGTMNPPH
Experimental: as §1, §2, §3, §4, §5, §6, §7, §8, §9, §10, §11, §12, §13, §14, §15, §16, §17, §18, §19, §20, §21, §22, §23, §24

Compound: O=C(O)c1cn(C2CC2)c2cc(N3CCNCC3)c(F)cc2c1=O [Ciprofloxacin]
- ΔTm at 70 µM (ADAL; read-out: ΔTm Rep. 1): 5.91 °C
- ΔTm at 70 µM (ADAL; read-out: ΔTm Rep. 2): 6.21 °C
- ΔTm at 70 µM (ULK3; read-out: ΔTm Rep. 1): 1.72 °C
- ΔTm at 70 µM (ULK3; read-out: ΔTm Rep. 2): 4.39 °C
- ΔTm at 70 µM (SMG7; read-out: ΔTm Rep. 1): 1.67 °C
- ΔTm at 70 µM (SMG7; read-out: ΔTm Rep. 2): 3.28 °C
